Assay: molar heat capacity at constant pressure; mn = molality of the nth substance listed, in mol/kg
Conditions: 350 kPa, Liquid

O=[N+]([O-])[O-].O=[N+]([O-])[O-].[Mn+2] [manganese nitrate] + O
molar heat capacity at constant pressure [J/K/mol]
Conditions	m1 = 0.0132	m1 = 0.0248	m1 = 0.0503	m1 = 0.0825	m1 = 0.0836	m1 = 0.1542	m1 = 0.3085	m1 = 0.5132
338.15 K	75.36	75.33	75.26	75.19	75.19	75.04	74.78	74.52
343.15 K	75.42	75.39	75.32	75.25	75.25	75.1	74.84	74.59
348.15 K	75.48	75.45	75.38	75.31	75.31	75.16	74.91	74.66
353.15 K	75.55	75.52	75.46	75.38	75.38	75.23	74.98	74.73
358.15 K	75.63	75.6	75.53	75.46	75.46	75.31	75.06	74.81
363.15 K	75.72	75.68	75.62	75.54	75.54	75.39	75.14	74.89
368.15 K	75.81	75.78	75.71	75.63	75.63	75.48	75.22	74.97
373.15 K	75.91	75.88	75.81	75.73	75.73	75.57	75.31	75.06
378.15 K	76.02	75.99	75.91	75.83	75.83	75.67	75.41	75.15
383.15 K	76.14	76.1	76.03	75.94	75.94	75.78	75.51	75.25
388.15 K	76.27	76.23	76.15	76.07	76.07	75.89	75.62	75.36
393.15 K	76.41	76.37	76.29	76.2	76.2	76.02	75.74	75.47
